In US11235018B2, “Composition for preventing or treating cancer” (OKCHUNDANG CO., LTD., priority 2018, dated 2022):
Marks after values point to notes of the source that are not given here.

Key:
[1] = Histopathological change of spleen; assay type: in vivo, mice; settings: single: gefitinib 120 mg/kg or SKOG 400 mg/kg, oral, 35 days
peritoneal NK cell = test: Peritoneal NK cell activity in NCI-H520 xenograft mice; assay type: in vivo; settings: single: gefitinib 120 mg/kg or SKOG 400 mg/kg, oral, 35 days
[2] = test system: NCI-H520 tumor cell xenograft; test: Tumor weight in NCI-H520 xenograft mice; assay type: in vivo; settings: single: gefitinib 120 mg/kg or SKOG 400 mg/kg, oral, 35 days
splenic NK cell = test: Splenic NK cell activity in NCI-H520 xenograft mice; assay type: in vivo; settings: single: gefitinib 120 mg/kg or SKOG 400 mg/kg, oral, 35 days
TNF-α [3] = test: Intratumoral TNF-α immune response cells; assay type: in vivo, mice; settings: single: gefitinib 120 mg/kg or SKOG 400 mg/kg, oral, 35 days
COX-2 = test: Intratumoral COX-2 immune response cells; assay type: in vivo, mice; settings: single: gefitinib 120 mg/kg or SKOG 400 mg/kg, oral, 35 days
IL-1β = test: Splenic IL-1β level in NCI-H520 xenograft mice; assay type: in vivo; settings: single: gefitinib 120 mg/kg or SKOG 400 mg/kg, oral, 35 days
TNF-α [4] = test: Splenic TNF-α level in NCI-H520 xenograft mice; assay type: in vivo; settings: single: gefitinib 120 mg/kg or SKOG 400 mg/kg, oral, 35 days
[5] = Histopathological change of submandibular lymph nodes; assay type: in vivo, mice; settings: single: gefitinib 120 mg/kg or SKOG 400 mg/kg, oral, 35 days
IL-6 = test: Serum IL-6 level in NCI-H520 xenograft mice; assay type: in vivo; settings: single: gefitinib 120 mg/kg or SKOG 400 mg/kg, oral, 35 days
PARP = test: Intratumoral PARP immune response cells; assay type: in vivo, mice; settings: single: gefitinib 120 mg/kg or SKOG 400 mg/kg, oral, 35 days
IL-10 = test: Splenic IL-10 level in NCI-H520 xenograft mice; assay type: in vivo; settings: single: gefitinib 120 mg/kg or SKOG 400 mg/kg, oral, 35 days
[6] = test system: NCI-H520 tumor cell xenograft; test: Tumor volume in NCI-H520 xenograft mice; assay type: in vivo; settings: single: gefitinib 120 mg/kg or SKOG 400 mg/kg
[7] = Periovarian fat weight in NCI-H520 xenograft mice; assay type: in vivo; settings: single: gefitinib 120 mg/kg or SKOG 400 mg/kg, oral, 35 days
[8] = Spleen weight in NCI-H520 xenograft mice; assay type: in vivo; settings: single: gefitinib 120 mg/kg or SKOG 400 mg/kg, oral, 35 days
[9] = test system: NCI-H520 tumor cell xenograft; test: Histopathological change of tumor mass (tumor cell volume, apoptotic cells); assay type: in vivo, mice; settings: single: gefitinib 120 mg/kg or SKOG 400 mg/kg, oral, 35 days
IFN-γ = test: Serum IFN-γ level in NCI-H520 xenograft mice; assay type: in vivo; settings: single: gefitinib 120 mg/kg or SKOG 400 mg/kg, oral, 35 days
Caspase-3 = test: Intratumoral caspase-3 immune response cells; assay type: in vivo, mice; settings: single: gefitinib 120 mg/kg or SKOG 400 mg/kg, oral, 35 days
iNOS = test: Intratumoral iNOS immune response cells; assay type: in vivo, mice; settings: single: gefitinib 120 mg/kg or SKOG 400 mg/kg, oral, 35 days
[10] = Histopathological change of periovarian fat; assay type: in vivo, mice; settings: single: gefitinib 120 mg/kg or SKOG 400 mg/kg, oral, 35 days
[11] = Submandibular lymph node weight in NCI-H520 xenograft mice; assay type: in vivo; settings: single: gefitinib 120 mg/kg or SKOG 400 mg/kg, oral, 35 days
[12] = Body weight and weight gain in NCI-H520 xenograft mice; assay type: in vivo; settings: single: gefitinib 120 mg/kg or SKOG 400 mg/kg

COc1cc2ncnc(Nc3ccc(F)c(Cl)c3)c2cc1OCCCN1CCOCC1 [Gefitinib, N-(3-chloro-4-fluorophenyl)-7-methoxy-6-(3-morpholinopropoxy)quinazolin-4-amine]
Number of splenic white pulps [1]: 4.63 ± 1.85^a /mm^2
Splenic white pulp diameter [1]: 187.63 ± 73.54^e μm/white pulp
change of number of splenic white pulps compared with tumor xenograft control group [1]: −5.13%
change of splenic overall thickness compared with tumor xenograft control group [1]: 0.42%
change of splenic white pulp diameter compared with tumor xenograft control group [1]: −0.60%
change of peritoneal NK cell activity compared with tumor xenograft control group (peritoneal NK cell): −7.43%
Tumor weight (absolute weight) [2]: 1.664 ± 0.292^f
Tumor weight (relative weight) [2]: 8.274 ± 1.443^g
change in absolute tumor weight compared with tumor xenograft control group [2]: −40.73%
change in relative tumor weight compared with tumor xenograft control group [2]: −33.56%
change of splenic NK cell activity compared with tumor xenograft control group (splenic NK cell): −6.32%
Percentage of immune-responsive cells, TNF-α (TNF-α [3]): 7.28 %/tumor cells
change of proportion of TNF-α immune response cells in the tumor tissue compared with tumor xenograft control group (TNF-α [3]): −6.19%
Percentage of immune-responsive cells, COX-2 (COX-2): 38.89 %/tumor cells
change of proportion of COX-2 immune response cells in the tumor tissue compared with tumor xenograft control group (COX-2): −35.00%
Splenic IL-1β (Interleukin-1β) level (IL-1β): 8.36 ± 1.96^a
change of splenic IL-1β level compared with tumor xenograft control group (IL-1β): −3.18%
Splenic TNF-α (Tumor necrosis factor-α) level (TNF-α [4]): 26.23 ± 10.81^a
change of splenic TNF-α level compared with tumor xenograft control group (TNF-α [4]): −0.24%
Number of intracortical follicles [5]: 5.38 ± 2.39^d /mm^2
change of number of intracortical follicles in the submandibular lymph nodes compared with tumor xenograft control group [5]: −6.52%
change of submandibular lymph node cortex thickness compared with tumor xenograft control group [5]: −3.84%
change of submandibular lymph node overall thickness compared with tumor xenograft control group [5]: −2.55%
cortex thickness [5]: 215.75 ± 43.93^d μm/lymph node
submandibular lymph node overall thickness [5]: 501.50 ± 106.64^a μm/central region
change of serum IL-6 level compared with tumor xenograft control group (IL-6): 6.25%
Percentage of immune-responsive cells, PARP (PARP): 46.98 %/tumor cells
change of proportion of PARP immune response cells in the tumor tissue compared with tumor xenograft control group (PARP): 223.59%
Splenic IL-10 (Interleukin-10) level (IL-10): 25.58 ± 11.94^a
change of splenic IL-10 level compared with tumor xenograft control group (IL-10): −3.53%
Tumor volume, start of administration [A] ([6]; baseline): 462.10 ± 105.87 mm^3
Tumor volume change [B − A] ([6]; oral, 35 days): 2396.41 ± 329.84 ^a mm^3
Tumor volume, at the time of sacrifice [B] ([6]; oral, 35 days): 2858.51 ± 377.01^a mm^3
change in tumor volume during drug administration period compared with tumor xenograft control group ([6]; oral, five weeks): −60.18%
Periovarian fat (absolute weight) [7]: 0.007 ± 0.002^d
Periovarian fat (relative weight) [7]: 0.036 ± 0.011^e
change of absolute periovarian fat weight compared with tumor xenograft control group [7]: −13.43%
change of relative periovarian fat weight compared with tumor xenograft control group [7]: −2.79%
Spleen (absolute weight) [8]: 0.051 ± 0.007^a
Spleen (relative weight) [8]: 0.251 ± 0.036^a
change of absolute spleen weight compared with tumor xenograft control group [8]: −7.13%
change of relative spleen weight compared with tumor xenograft control group [8]: 4.11%
Percentage of apoptotic cells [9]: 49.88%
Tumor cell volume [9]: 56.28 %/mm^2
change of proportion of apoptotic cells in the tumor tissue compared with tumor xenograft control group [9]: 560.23%
change of proportion of tumor cells in the tumor tissue compared with tumor xenograft control group [9]: −29.01%
change of serum IFN-γ level compared with tumor xenograft control group (IFN-γ): −2.85%
Percentage of immune-responsive cells, Caspase-3 (Caspase-3): 40.60 %/tumor cells
change of proportion of caspase-3 immune response cells in the tumor tissue compared with tumor xenograft control group (Caspase-3): 268.77%
Percentage of immune-responsive cells, iNOS (iNOS): 12.07 %/tumor cells
change of proportion of iNOS immune response cells in the tumor tissue compared with tumor xenograft control group (iNOS): −0.50%
White fat cell average diameter [10]: 12.36 ± 1.95^d μm
change of periovarian accumulation fat thickness compared with tumor xenograft control group [10]: −8.19%
change of white fat cell average diameter compared with tumor xenograft control group [10]: −6.37%
Submandibular lymph nodes (absolute weight) [11]: 0.004 ± 0.001^d
change in absolute submandibular lymph node weight compared with tumor xenograft control group [11]: −8.82%
change in relative submandibular lymph node weight compared with tumor xenograft control group [11]: 1.85%
submandibular lymph nodes (relative weight) [11]: 0.019 ± 0.006^e
Body weight, administration initiation ([12]; baseline): 19.29 ± 1.29 g
Actual body weight (excluding tumor weight) ([12]; oral, 35 days): 18.46 ± 0.77^ad g
Body weight, sacrifice ([12]; oral, 35 days): 20.13 ± 0.76^fg
Weight gain ([12]; oral, 35 days): −0.83 ± 0.98^ac g
change of actual body weight excluding tumor weight compared with tumor xenograft group ([12]; oral, 35 days): −6.61%
change of weight gain during administration period compared with tumor xenograft control group ([12]; oral, 35 days): −341.95%
